This passage reports IC50 results from PubChem BioAssay AID1949 (Southern Research Institute, 2009).

The structures appear in SMILES notation. Converted amounts (≈) assume the structure as drawn. Records with an inconclusive call do not appear. The source made the active and inactive calls. No rule for the calls is given here. Bounds are passed on as bounds.

This assay concerns M. tuberculosis H37Rv growth inhibition. Kind of assay: Mycobacterium tuberculosis H37Rv growth inhibition, cell based, confirmatory dose response (AID 1949).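 Also: bacteria grown 7 days with compound before Alamar blue readout.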

Consider `O=C(Nc1ccc(Nc2ccccc2)cc1)C(Cl)Cl`, for which the IC50 is 6.79 µg/mL (≈ 23 µM).

For the compound `O=C(Nc1ccc(Cl)c(Br)c1)c1ccc(Cl)cc1Cl`, the half-inhibitory concentration (IC50) was 4.23 µg/mL (≈ 11.1 µM). On to `O=C(CSc1ccc(Br)cc1)Nc1ccccc1F`, for which the IC50 was 1.6 µg/mL (≈ 4.7 µM). With `Cc1ccnc(NC(=O)COc2ccc([N+](=O)[O-])cc2)c1` the figure was 0.43 µg/mL (≈ 1.5 µM); with `COc1ccc(OCc2nn3c(-c4ccc(C(C)(C)C)cc4)nnc3s2)cc1`, > 50 µg/mL (inactive); with `COc1nc(SC)nc2sc3c(c12)CCC3`, 1.47 µg/mL (≈ 5.82 µM). With `CCOCC(=O)Nc1sc2c(c1C(=O)OCC)CCCC2` the figure was > 50 µg/mL (inactive); with `COc1ccc(N/C(N)=N/c2nc(-c3cccs3)cc(C(F)(F)F)n2)cc1`, > 50 µg/mL (inactive). For `CC(NCc1cccc(OCc2ccccc2)c1)C(O)c1ccccc1` (stereo unspecified), the 50% inhibitory concentration (IC50) was 5.53 µg/mL (≈ 15.9 µM). With `Cc1ccc(NC(=O)c2ccc(N3CCN(C)CC3)c([N+](=O)[O-])c2)cc1Cl`, the IC50 was 2.22 µg/mL (≈ 5.71 µM). Turning to `O=[N+]([O-])c1ccc(O)c(-c2nc(-c3cccs3)c(-c3cccs3)[nH]2)c1`, the half-inhibitory concentration (IC50) was 97 µg/mL (≈ 263 µM). In the case of `Cc1cc(OCC(O)CN2CCN(c3ccc(F)cc3)CC2)ccc1C(C)C` (stereo unspecified) it was 11.7 µg/mL (≈ 30.2 µM); in that of `COc1cccc(CN2CCN(C(=O)Nc3ccc(Cl)c(Cl)c3)CC2)c1`, 5.13 µg/mL (≈ 13 µM); in that of `Clc1ccc(OCCCCCn2ccnc2)c(Cl)c1`, 3.48 µg/mL (≈ 11.6 µM). With `CC(C)c1ccc(NC(=S)NC(=O)c2ccccc2F)cc1` the figure was 2.56 µg/mL (≈ 8.09 µM); with `N#Cc1ccc(-c2ccc(OCC(=O)Nc3cccnc3)cc2)cc1`, < 0.1 µg/mL; with `COC(=O)COc1ccc2c(=O)c(-c3ccccc3Cl)c(C)oc2c1`, 0.42 µg/mL (≈ 1.17 µM). With `CCc1ccc(OCC(=O)Nc2ccc(N3CCN(C(=O)c4cccs4)CC3)c(Cl)c2)cc1` the figure was 2.95 µg/mL (≈ 6.09 µM); with `COc1cc(NC(=O)c2cc3ccccc3o2)ccc1NC(=O)c1ccccc1Cl`, 2.31 µg/mL (≈ 5.49 µM); with `Cc1ccc(NC(=S)Nc2cc(C)[nH]n2)c(Cl)c1`, 22.2 µg/mL (≈ 79.2 µM).

As for `N#Cc1ccc(NC(=O)CSc2ccc(Cl)cc2)cc1`, the IC50 was 2.94 µg/mL (≈ 9.71 µM). With `NC(=O)COc1ccc(C23CC4CC(CC(C4)C2)C3)cc1` the figure was 19.7 µg/mL (≈ 69.2 µM); with `O=C(Nc1ccccc1Br)c1ccc([N+](=O)[O-])o1`, 1.61 µg/mL (≈ 5.18 µM); with `CSc1nsc(SCC(=O)c2ccccc2)n1`, 4.45 µg/mL (≈ 15.8 µM).

For `CCN(CC)c1ccc(NC(=S)Nc2ccc(F)c(Cl)c2)cc1`, the IC50 is 7.64 µg/mL (≈ 21.7 µM).

As for `CC1(C)COC(/C=C/c2cccc([N+](=O)[O-])c2)=N1`, the half-maximal inhibitory concentration (IC50) was 11.6 µg/mL (≈ 47.1 µM). In the case of `CCOc1ccc(NCCC(=O)c2ccc3c(c2)OCO3)cc1`, the IC50 is 3.32 µg/mL (≈ 10.6 µM). With `CCCC(=O)NC(=S)Nc1ccc(N2CCN(C(=O)c3cccs3)CC2)c(Cl)c1` the figure was 0.61 µg/mL (≈ 1.35 µM); with `O=C(NCCc1ccc(F)cc1)NC12CC3CC(CC(C3)C1)C2`, 0.21 µg/mL (≈ 0.664 µM); with `c1cc2c3c(cccc3c1)NC1(CCCCCC1)N2`, > 50 µg/mL (inactive). In the case of `COc1cccc(OCCN2CCN(c3ncnc4sc5c(c34)CCCC5)CC2)c1`, the IC50 was 29 µg/mL (≈ 68.2 µM). As to `O=C(NC1CC1c1ccccc1)C12CC3CC(CC(C3)C1)C2` (stereo unspecified), the IC50 is 14.6 µg/mL (≈ 49.5 µM). In the case of `O=C(CC1COc2ccccc2O1)Nc1ccc(Br)cc1` (stereo unspecified), the IC50 is 11 µg/mL (≈ 31.6 µM). With `O=S1(=O)C=CC2ON=C(c3c(Cl)cccc3Cl)C21` (stereo unspecified) the figure was 10.8 µg/mL (≈ 35.6 µM). In the case of `FC(F)(F)c1nnc2n1Nc1nc3ccccc3nc1S2`, the IC50 is 4.52 µg/mL (≈ 14.6 µM). On to `CCn1c(NC(=S)Nc2ccccc2)nc2ccccc21`, for which the IC50 was > 50 µg/mL (inactive).

Regarding `CC12CCC(C(=O)Oc3cccc4cccnc34)(CC1=O)C2(C)C` (stereo unspecified), the IC50 was 1.57 µg/mL (≈ 4.85 µM). With `CCOC(=O)c1c(C)n(-c2ccc(C)cc2)c2ccc(O)c(CN(C)C)c12`, the IC50 was 10.9 µg/mL (≈ 29.6 µM). For the compound `CCOC(=O)c1c(NC(=O)c2c(F)c(F)c(F)c(F)c2F)sc(C(=O)OC)c1C`, the IC50 was 0.37 µg/mL (≈ 0.846 µM).

For `CC(C)OC(=O)COc1ccc(C(=O)NCc2ccccc2)cc1`, the half-maximal inhibitory concentration (IC50) is 0.91 µg/mL (≈ 2.78 µM). Take `Clc1cc(Cl)c2c(c1)NC(c1cccnc1)C1CC=CC21` (stereo unspecified): the IC50 is 22.1 µg/mL (≈ 69.6 µM). With `Cn1nnc(NC(=O)COc2ccc(C3CCCCC3)cc2)n1` the figure was 2.85 µg/mL (≈ 9.04 µM); with `COc1ccc(-c2nnc(SCC(=O)Nc3ccc([N+](=O)[O-])cc3)o2)cc1`, 0.64 µg/mL (≈ 1.66 µM). With `CCOC(=O)COc1ccc2cc(-c3nc4ccccc4o3)c(=O)oc2c1`, the half-inhibitory concentration (IC50) is 3.3 µg/mL (≈ 9.03 µM). In the case of `c1ccc2c(C(c3ccncc3)c3c[nH]c4ccccc34)c[nH]c2c1` it was 12.2 µg/mL (≈ 37.8 µM). For the compound `Cc1cc(N)cc(-c2nc3ccccc3o2)c1O`, the IC50 is 16.4 µg/mL (≈ 68.4 µM). In the case of `CCOC(=O)COc1ccc2c(=O)c(Oc3cccc(OC)c3)coc2c1` it was 27.2 µg/mL (≈ 73.4 µM); in that of `CCOC(=O)c1c(-c2ccccc2)oc2ccc(O)c(CN3CCCC3)c12`, 3.37 µg/mL (≈ 9.22 µM); in that of `O=C(CSc1ccc(Cl)cc1)Nc1ccc(Cl)c(C(F)(F)F)c1`, 3.18 µg/mL (≈ 8.36 µM). In the case of `CSc1cccc(NC(=O)C2CCN(C(=O)c3ccc(-c4ccccc4)cc3)CC2)c1` it was 5.73 µg/mL (≈ 13.3 µM); in that of `CCc1ccc(C(=O)NC(=S)Nc2ccc(C(=O)OC)cc2)cc1`, 3.98 µg/mL (≈ 11.6 µM).
